Biological target: purified recombinant human BTK protein (Homo sapiens (Human), UniProt Q06187)
Experiment: Measurement of BTK inhibitory activity (in vitro)
Assay type: biochemical
Settings: FL-PEPTIDE 2 substrate 1 μM, ATP 45 μM, 40 minutes at 25° C.
Excerpt: With regard to the setting of the conditions for a method for measuring the inhibitory activity of a compound against BTK kinase activity in vitro, it is described in the consumable reagent supplies price list for LabChip (registered trademark) series of PerkinElmer, Inc. that FL-PEPTIDE 2 corresponds to a substrate peptide for the measurement of BTK kinase activity. Therefore, FL-PEPTIDE 2 was used as a substrate. The purified recombinant human BTK protein used in the test was purchased from Carna Biosciences, Inc.
With regard to the measurement of the inhibitory activity of the compounds, firstly, the compounds of the present invention were diluted stepwise with dimethyl sulfoxide (DMSO). Subsequently, BTK protein, a substrate peptide (final concentration was 1 μM), magnesium chloride (final concentration was 10 mM), ATP (final concentration was 45 μM), and a DMSO solution of the compounds of the present invention (final concentration of DMSO was 5%) were added to a buffer solution for kinase reaction (20 mM HEPES (pH 7.5), 2 mM dithiotheitol, 0.01% Triton X-100), and after the solution was incubated for 40 minutes at 25° C., a kinase reaction was carried out. The reaction was terminated by adding EDTA thereto in order to obtain a final concentration of 30 mM. Finally, a substrate peptide that was not phosphorylated (S) and a phosphorylated peptide (P) were separated and detected by microchannel capillary electrophoresis using a LabChip EZ Reader II (PerkinElmer, Inc.).

Sequence of purified recombinant human BTK protein (Q06187 whole entry): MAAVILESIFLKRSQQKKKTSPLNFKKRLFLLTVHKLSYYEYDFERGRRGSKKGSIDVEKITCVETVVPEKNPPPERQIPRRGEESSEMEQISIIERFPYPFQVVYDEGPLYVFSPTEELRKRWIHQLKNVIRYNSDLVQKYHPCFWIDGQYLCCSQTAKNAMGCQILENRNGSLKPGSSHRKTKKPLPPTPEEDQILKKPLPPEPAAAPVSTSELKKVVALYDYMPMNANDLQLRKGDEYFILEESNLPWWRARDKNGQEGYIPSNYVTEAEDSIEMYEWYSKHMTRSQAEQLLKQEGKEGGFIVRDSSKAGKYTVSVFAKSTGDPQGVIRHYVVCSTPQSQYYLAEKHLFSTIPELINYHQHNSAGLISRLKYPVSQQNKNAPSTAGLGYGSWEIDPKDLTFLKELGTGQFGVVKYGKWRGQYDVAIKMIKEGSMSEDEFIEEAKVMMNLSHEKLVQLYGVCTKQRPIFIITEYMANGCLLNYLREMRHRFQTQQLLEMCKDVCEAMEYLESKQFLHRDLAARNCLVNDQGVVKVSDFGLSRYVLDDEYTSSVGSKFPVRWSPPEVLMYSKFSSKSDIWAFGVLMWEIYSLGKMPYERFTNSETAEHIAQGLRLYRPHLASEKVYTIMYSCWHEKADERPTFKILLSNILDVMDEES

Point of comparison: `Nc1ncnc2c1c(C(=O)Nc1nc3ccccc3o1)nn2[C@@H]1CCCN(C(=O)/C=C/CN2CCN(CCNC(=O)CCCC[C@@H]3SC[C@@H]4NC(=O)N[C@@H]43)CC2)C1` [Example P-2, 4-amino-N-(benzo[d]oxazol-2-yl)-1-((R)-1-((E)-4-(4-(2-(5-((3aS,4S,6aR)-2-oxohexahydro-1H-thieno[3,4-d]imidazol-4-yl)pentanamido)ethyl)piperazin-1-yl)but-2-enoyl)piperidin-3-yl)-1H-pyrazolo[3,4-d]pyrimidine-3-carboxamide], IC50 43.9 nM. Against it:
- C=CC(=O)N1CCC[C@@H](n2nc(C(=O)Nc3nc4cc(Cl)ccc4o3)c3c(N)ncnc32)C1 [Example 1, (R)-1-(1-acryloylpiperidin-3-yl)-4-amino-N-(5-chlorobenzo[d]oxazol-2-yl)-1H-pyrazolo[3,4-d]pyrimidine-3-carboxamide] — 110-fold lower, 0.415 nM
- C=CC(=O)N1CCC[C@@H](n2nc(C(=O)Nc3nc4cc(-c5cccs5)ccc4o3)c3c(N)ncnc32)C1 [Example 3, (R)-1-(1-acryloylpiperidin-3-yl)-4-amino-N-(5-(thiophen-2-yl)benzo[d]oxazol-2-yl)-1H-pyrazolo[3,4-d]pyrimidine-3-carboxamide] — 99-fold lower, 0.443 nM
- C=CC(=O)N1CC[C@@H](n2nc(C(=O)Nc3nc4cc(-c5ccc(Cl)cc5)ccc4o3)c3c(N)ncnc32)C1 [Example 31, (R)-1-(1-acryloylpyrrolidin-3-yl)-4-amino-N-(5-(4-chlorophenyl)benzo[d]oxazol-2-yl)-1H-pyrazolo[3,4-d]pyrimidine-3-carboxamide] — 26-fold lower, 1.67 nM
- CCN(C)C/C=C/C(=O)N1CC[C@@H](n2nc(C(=O)Nc3nc4cc(Cl)ccc4o3)c3c(N)ncnc32)C1 [Example 33, (R,E)-4-amino-N-(5-chlorobenzo[d]oxazol-2-yl)-1-(1-(4-(ethyl(methyl)amino)but-2-enoyl)pyrrolidin-3-yl)-1H-pyrazolo[3,4-d]pyrimidine-3-carboxamide] — 49-fold lower, 0.887 nM
- C=CC(=O)N1CC[C@@H](n2nc(C(=O)Nc3nc4cc(C(F)(F)F)ccc4o3)c3c(N)ncnc32)C1 [Example 43, (R)-1-(1-acryloylpyrrolidin-3-yl)-4-amino-N-(5-(trifluoromethyl)benzo[d]oxazol-2-yl)-1H-pyrazolo[3,4-d]pyrimidine-3-carboxamide] — 80-fold lower, 0.546 nM
- C=CC(=O)N1CC[C@@H](n2cc(C(=O)Nc3nc4cc(-c5ccccc5)ccc4o3)c3c(N)ncnc32)C1 [Example 55, (R)-7-(1-acryloylpyrrolidin-3-yl)-4-amino-N-(5-phenylbenzo[d]oxazol-2-yl)-7H-pyrrolo[2,3-d]pyrimidine-5-carboxamide] — 55-fold lower, 0.799 nM
- CCN(CC)C/C=C/C(=O)N1CC[C@@H](n2cc(C(=O)Nc3nc4cc(-c5ccccc5)ccc4o3)c3c(N)ncnc32)C1 [Example 58, (R,E)-4-amino-N-(5-phenylbenzo[d]oxazol-2-yl)-7-(1-(4-(diethylamino)but-2-enoyl)pyrrolidin-3-yl) 7H-pyrrolo[2,3-d]pyrimidine-5-carboxamide] — 24-fold lower, 1.84 nM
- C=CC(=O)N1CCC[C@@H](n2nc(C(=O)Nc3nc4cccc(Cl)c4o3)c3c(N)ncnc32)C1 [Example 64, (R)-1-(1-acryloylpiperidin-3-yl)-4-amino-N-(7-chlorobenzo[d]oxazol-2-yl)-1H-pyrazolo[3,4-d]pyrimidine-3-carboxamide] — 5.4-fold lower, 8.09 nM
- C=CC(=O)N1CC[C@H](n2nc(C(=O)Nc3nc4ccccc4o3)c3c(N)ncnc32)C1 [Example 65, (S)-1-(1-acryloylpyrrolidin-3-yl)-4-amino-N-(benzo[d]oxazol-2-yl)-1H-pyrazolo[3,4-d]pyrimidine-3-carboxamide] — 1.8-fold higher, 79 nM
- C=CC(=O)N1CCC(n2nc(C(=O)Nc3nc4ccccc4o3)c3c(N)ncnc32)CC1 [Example 69, 1-(1-acryloylpiperidin-4-yl)-4-amino-N-(benzo[d]oxazol-2-yl)-1H-pyrazolo[3,4-d]pyrimidine-3-carboxamide] — 3.7-fold higher, 162 nM
- C=CC(=O)N1CC(n2nc(C(=O)Nc3nc4ccccc4o3)c3c(N)ncnc32)C1 [Example 74, 1-(1-acryloylazetidin-3-yl)-4-amino-N-(benzo[d]oxazol-2-yl)-1H-pyrazolo[3,4-d]pyrimidine-3-carboxamide] — 2.1-fold lower, 21.4 nM
- CC1=CC(C)=[N+]2C1=Cc1ccc(CCC(=O)NCCN3CCN(C/C=C/C(=O)N4CCC[C@@H](n5nc(C(=O)Nc6nc7ccccc7o6)c6c(N)ncnc65)C4)CC3)n1[B-]2(F)F [Example P-1, (R,E)-7-(3-((2-(4-(4-(3-(4-amino-3-(benzo[d]oxazol-2-ylcarbamoyl)-1H-pyrazolo[3,4-d]pyrimidin-1-yl)piperidin-1-yl)-4-oxobut-2-en-1-yl)piperazin-1-yl)ethyl)amino)-3-oxopropyl) 5,5-difluoro-1,3-dimethyl-5H-dipyrrolo[1,2-c:2′,1′-f][1,3,2]diazaborinin-4-ium-5-uide] — within 1.5-fold, 31.4 nM

Tested on: A431 cells / TMD8 cells
Experiment: Proliferation inhibitory activity against cell lines expressing BTK and EGFR (in vitro), comparison of selectivity
Assay type: cell-based, human
Settings: ratio from GI50 (nM), 3 days culture, CELLTITER GLO
Excerpt: TMD8 cells, which are of a diffuse large B-cell lymphoma cell line expressing BTK, were suspended in RPMI1640 medium (manufactured by Life Technologies Corp.) containing 10% fetal bovine serum. A431 cells, which are of an EGFR-overexpressing, highly activated human epidermoid carcinoma cell line, were suspended in DMEM, high glucose medium (manufactured by Life Technologies Corp.) containing 10% fetal bovine serum. The cell suspensions were inoculated into each well of 384-well flat-bottomed microplates, and the cells were cultured for 1 day at 37° C. in an incubator containing 5% carbon dioxide gas. […] A DMSO solution of the test compounds was diluted with the medium used in the suspension of the each cells, and this was added to each of the wells of the cell culture plates such that the final concentration of DMSO would be 0.2%. The cells were further cultured for 3 days at 37° C. in an incubator containing 5% carbon dioxide gas. […] Proliferation inhibition ratio (%)=(C−T)/(C−C0)×100
T: Luminescence intensity of a well in which the test compound was added
C: Luminescence intensity of a well in which the test compound was not added
C0: Luminescence intensity of a well measured before the addition of the test compound
When a comparison is made between the cell proliferation inhibitory activity against A431 cells that depends on the EGFR proliferation signaling and the cell proliferation inhibitory activity against TMD8 cells that depends on the BTK proliferation signaling, the influence of the respective kinases at a cellular level is able to be evaluated. That is, when the “A431 cell proliferation inhibition ratio/TMD8 cell proliferation inhibition ratio” is calculated, it is contemplated that as the value of the ratio is larger, the selectivity to BTK over EGFR in the cells is higher.

Point of comparison: `C=CC(=O)N1CC[C@@H](n2nc(C(=O)Nc3nc4cc(-c5ccccc5)ccc4o3)c3c(N)ncnc32)C1` [Example 41, (R)-1-(1-acryloylpyrrolidin-3-yl)-4-amino-N-(5-phenylbenzo[d]oxazol-2-yl)-1H-pyrazolo[3,4-d]pyrimidine-3-carboxamide], “A431 cell proliferation inhibition ratio/TMD8 cell proliferation inhibitio ratio” value 1667.7. Against it:
- C=CC(=O)N1CCC[C@@H](n2nc(C(=O)Nc3nc4cc(Cl)ccc4o3)c3c(N)ncnc32)C1 [Example 1, (R)-1-(1-acryloylpiperidin-3-yl)-4-amino-N-(5-chlorobenzo[d]oxazol-2-yl)-1H-pyrazolo[3,4-d]pyrimidine-3-carboxamide] — lower, 1062.9
- C=CC(=O)N1CCC[C@@H](n2nc(C(=O)Nc3nc4cc(OC)ccc4o3)c3c(N)ncnc32)C1 [Example 7, (R)-1-(1-acryloylpiperidin-3-yl)-4-amino-N-(5-methoxybenzo[d]oxazol-2-yl)-1H-pyrazolo[3,4-d]pyrimidine-3-carboxamide] — higher, 5440.9
- C=CC(=O)N1CCC[C@@H](n2nc(C(=O)Nc3nc4cc(CCOC)ccc4o3)c3c(N)ncnc32)C1 [Example 8, (R)-1-(1-acryloylpiperidin-3-yl)-4-amino-N-(5-(2-methoxyethyl)benzo[d]oxazol-2-yl)-1H-pyrazolo[3,4-d]pyrimidine-3-carboxamide] — higher, 25303.8
- CN(C)C/C=C/C(=O)N1CCC[C@@H](n2nc(C(=O)Nc3nc4cc(-c5cccs5)ccc4o3)c3c(N)ncnc32)C1 [Example 21, (R,E)-4-amino-N-(5-(thiophen-2-yl)benzo[d]oxazol-2-yl)-1-(1-(4-(dimethylamino)but-2-enoyl)piperidin-3-yl)-1H-pyrazolo[3,4-d]pyrimidine-3-carboxamide] — higher, 4909.1
- C=CC(=O)N1CC[C@@H](n2nc(C(=O)Nc3nc4ccccc4o3)c3c(N)ncnc32)C1 [Example 27, (R)-1-(1-acryloylpyrrolidin-3-yl)-4-amino-N-(benzo[d]oxazol-2-yl)-1H-pyrazolo[3,4-d]pyrimidine-3-carboxamide] — higher, 4155.9
- C=CC(=O)N1CC[C@@H](n2nc(C(=O)Nc3nc4cc(OC)ccc4o3)c3c(N)ncnc32)C1 [Example 38, (R)-1-(1-acryloylpyrrolidin-3-yl)-4-amino-N-(5-methoxybenzo[d]oxazol-2-yl)-1H-pyrazolo[3,4-d]pyrimidine-3-carboxamide] — higher, 2868.1

With `C/C=C/C(=O)N1CCC[C@@H](n2nc(C(=O)Nc3nc4ccccc4o3)c3c(N)ncnc32)C1` [Example 14, (R,E)-4-amino-N-(benzo[d]oxazol-2-yl)-1-(1-(but-2-enoyl)piperidin-3-yl)-1H-pyrazolo[3,4-d]pyrimidine-3-carboxamide] the “A431 cell proliferation inhibition ratio/TMD8 cell proliferation inhibitio ratio” value was >1400.6.
In the case of `C=CC(=O)N1CCC(n2nc(C(=O)Nc3nc4cc(Cl)ccc4o3)c3c(N)ncnc32)C1` (stereo not shown) [Example 84, 1-(1-acryloylpyrrolidin-3-yl)-4-amino-N-(5-chlorobenzo[d]oxazol-2-yl)-1H-pyrazolo[3,4-d]pyrimidine-3-carboxamide], the “A431 cell proliferation inhibition ratio/TMD8 cell proliferation inhibitio ratio” value is reported as >7132.7.
